Assay results reported in patent US20250009902A1, “ARTIFICIAL ENZYME-BACTERIA SYSTEM AND USES THEREOF” (NATIONAL UNIVERSITY OF SINGAPORE, priority 2021, published 2025).

Legend:
[1] = test system: HT-29 cells; experiment: HT-29 cell viability, MTT assay, with or without H2O2; details: 200 μM H2O2, MTT; H2O2 alone approximately 20%; FIG. 4k
Protocol: (§1) For the protection of cells from H2O2 induced oxidative stress, different concentrations of BL@B-SA50 were cultured with HT-29 cells in the absence or presence of H2O2 (200 μM) for 24 hours. Relative cell viabilities were tested by the 3-(4,5-dimethylthiazol-2-yl)-2,5-diphenyltetrazolium bromide (MTT) assay.
(§2) The concentrations of nanomaterials in different measurements of MTT assays were 0.625 μg/mL while that for confocal microscopy and flow cytometry were both 2.5 μg/mL. The viabilities of HT-29 cells without treatment were defined as 100%, while the ROS content of HT-29 cells without treatment was defined as 1.

[2] = test system: HT-29 cells
Protocol: as §1, §2

With Bifidobacterium longum [BL] the “viability of HT29 cells exposed to H2O2” value [1] was “also enhanced” and the “relative cell viability of HT29 cells (cytotoxicity / growth)” value [2] was “could promote the growth of HT29”.
